US20110257116A1, “BIOSURFACTANT-CONTAINING SKIN CARE COSMETIC AND SKIN ROUGHNESS-IMPROVING AGENT” (National Institute Of Advanced Industrial Science And …, priority 2005, published 2011)
Entries after “also recorded” stand apart in the source; their conditions may differ.

Key:
[1] = system: three-dimensional skin model (Test Skin LSE-002 or 003; Toyobo) treated with SDS; assay: Skin roughness model: three-dimensional skin model defatted with SDS, cell viability by MTT (absorbance of formazan); format: cell-based; conditions: for cell viability (absorbance of formazan): dissolved in olive oil, added on Test Skin treated with 1% SDS, left overnight, MTT kit
[2] = Dispersion stability test in water (absorbance at 650 nm); format: physicochemical; conditions: FIG. 6; for change in turbidity of the water suspension: after 6 hours
Description: MEL-B or MEL-C at a concentration of 10 mg/mL was added to water, stirred and suspended. Its absorbance at 650 nm was measured.

Q: With mannosylerythritol lipid A [MEL-A] as the substance, how does the “cell viability (absorbance of formazan)” value [1] read?
A: Its value is “increased in a MEL-A-concentration-dependent manner”.

Q: What does the source list for mannosylerythritol lipid B [MEL-B]?
A: skin roughness improvement compared with MEL-A ([1]; FIG. 4 legend, three-dimensional skin model treated with SDS, viability): increased skin roughness improvement over MEL-A; cell viability (absorbance of formazan) [1]: increased in a MEL-B-concentration-dependent manner; change in turbidity of the water suspension [2]: little observable change in turbidity

Q: Which “cell viability (absorbance of formazan)” value [1] does the source give for mannosylerythritol lipid C [MEL-C] here?
A: The value was “increased in a MEL-C-concentration-dependent manner”.

Q: What about the dispersion stability ([2]; 10 mg/mL in water, stirred and suspended, absorbance at 650 nm) of the same substance?
A: Its dispersion stability is “particularly excellent in dispersion stability; also recorded: more excellent than MEL-A in water dispersion stability”.

Q: And the “change in turbidity of the water suspension” value [2]?
A: The value was “little observable change in turbidity”.
